According to PMC5855801, “Benzothiophenone Derivatives Targeting Mutant Forms of Estrogen Receptor-α in Hormone-Resistant Breast Cancers” (International Journal of Molecular Sciences, 2018):

Assays:
[1] = biological target: T1, glucocorticoid receptor (GR) (Homo sapiens, UniProt P04150); test: Luciferase reporter selectivity assay in PC3 cells, GR; assay type: cell-based; conditions: 24 h
T1 construct: expressed in transfected cells; host or cells: PC3
T1 sequence (P04150 1-777): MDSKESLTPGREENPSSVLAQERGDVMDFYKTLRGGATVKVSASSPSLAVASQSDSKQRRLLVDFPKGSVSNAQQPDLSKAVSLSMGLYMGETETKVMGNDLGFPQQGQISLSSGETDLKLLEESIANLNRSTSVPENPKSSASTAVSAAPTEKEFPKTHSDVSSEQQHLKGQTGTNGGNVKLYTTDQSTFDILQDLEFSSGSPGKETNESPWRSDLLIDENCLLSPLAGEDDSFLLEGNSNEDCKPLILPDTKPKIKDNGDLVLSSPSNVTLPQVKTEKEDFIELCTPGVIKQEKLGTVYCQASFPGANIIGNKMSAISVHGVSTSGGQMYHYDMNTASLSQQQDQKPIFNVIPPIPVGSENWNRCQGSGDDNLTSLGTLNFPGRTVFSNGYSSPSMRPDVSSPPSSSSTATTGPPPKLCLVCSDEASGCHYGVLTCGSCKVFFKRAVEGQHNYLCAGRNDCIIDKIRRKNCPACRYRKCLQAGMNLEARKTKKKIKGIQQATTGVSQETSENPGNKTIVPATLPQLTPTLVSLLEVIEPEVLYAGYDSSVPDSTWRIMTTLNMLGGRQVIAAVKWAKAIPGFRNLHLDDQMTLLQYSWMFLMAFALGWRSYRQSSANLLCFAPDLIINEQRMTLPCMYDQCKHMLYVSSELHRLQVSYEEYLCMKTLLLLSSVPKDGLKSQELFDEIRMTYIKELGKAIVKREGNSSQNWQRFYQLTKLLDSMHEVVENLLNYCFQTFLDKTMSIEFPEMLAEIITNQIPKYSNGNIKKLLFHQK
Experimental: Figure 4 Further activity profile of VPC-16606. (A,B) Chromatin immunoprecipitation (ChIP) analysis of ERα binding to the pS2 enhancer, or the GAPDH promoter, in MCF7 cells. Where indicated, ERα was stimulated with 1 nM E2 or dimethyl sulfoxide (DMSO) alone, and the compound was administered at a 6 μM concentration. Sheared chromatin-protein complexes were precipitated with the ERα antibody, reverse cross-linked and analyzed by quantitative PCR. The results are normalized as fold enrichment over precipitation with a rabbit isotype control IgG antibody for each condition tested. Error bars indicate standard error of the mean (SEM) for 3 independent experiments performed in triplicates. Fold enrichment from the compound tested condition (ERα antibody) was statistically compared against DMSO + E2 with a two-tailed t-test (unpaired) *** indicates p-value <0.001. (C) Specificity of VPC-16606 was evaluated in the luciferase reporter assay. PC3 cells were transfected with plasmids expressing androgen receptor (AR), progesterone receptor (PR) or glucocorticoid receptor (GR) along with their responsive luciferase reporter constructs bearing androgen response element (ARE), progesterone response element (PRE) or glucocorticoid response element (GRE), respectively. […] Y-axis represents relative luminescence (RLU) after normalizing to constitutive renilla reporter. […]

ERβ LBD = ERβ LBD (Homo sapiens, UniProt Q92731); test: TR-FRET coactivator peptide displacement assay with ERβ-LBD; assay type: biochemical; conditions: purified ERβ LBD
Excerpt: Given that tamoxifen acts as a pure antagonist of ERβ [34], the effect of VPC-16606 on ERβ and its corresponding implications in breast cancer will also need to be evaluated. Moreover, the role of ERβ in breast cancer biology is not yet clear, with some evidence pointing towards ERβ exerting proliferating effects in the absence of ERα [36].
Supplementary Materials: Benzothiophenone Derivatives Targeting Mutant Forms of Estrogen Receptor-α in Hormone-Resistant Breast Cancers
Figure S1. Effect of VPC-16606 on viability of PC3 cells as measured in the Presto Blue assay. […]
Figure S2. TR-FRET Assay showing displacement of Fluorescein labelled PGC1 α peptide by VPC-16606 upon incubation with ER β-LBD. OHT was used at 1µM. Error bars represent standard deviation for two independent experiments performed in triplicates. […]

Chain of ERβ LBD (Q92731 264-498 limits assumed, species assumed): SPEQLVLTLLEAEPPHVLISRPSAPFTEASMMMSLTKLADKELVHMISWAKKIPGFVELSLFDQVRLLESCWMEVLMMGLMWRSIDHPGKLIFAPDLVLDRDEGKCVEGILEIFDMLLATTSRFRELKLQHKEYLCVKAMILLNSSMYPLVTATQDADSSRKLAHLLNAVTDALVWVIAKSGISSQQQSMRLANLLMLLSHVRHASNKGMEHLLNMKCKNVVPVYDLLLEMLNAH

## CC(=O)N(/N=C1\Sc2c(C)cccc2C1=O)c1ccccc1Cl [VPC-16606]
[1]; 50 µM
  Effect on GR activity (luciferase): some effect
[1]; doses up to 25 µM
  Effect on GR activity (luciferase): does not affect the activity
ERβ LBD
  Displacement of fluorescein labelled PGC1α peptide from ERβ LBD (TR-FRET): resulted in peptide displacement
